From patent publication US10351525B2, “Beta lactamase inhibitors” (Oxford University Innovation Limited, priority 2014, dated 2019)

Key:
VIM-2 = molecular target: T1, VIM-2 (Escherichia coli, UniProt Q5U7L7); details: Spicer et al, NIH Probe Reports 2010, read-out: IC50 against VIM-2, reported value; cited from earlier work
T1 construct: made in house; host or cells: Escherichia coli

P. aeruginosa GR57 [1] = experiment: MIC of MEM with and without ML302F (1:8), VIM-2 producer; assay type: cell-based; details: Pseudomonas aeruginosa; P. aeruginosa GR57 (VIM-2); MEM alone or with ML302F (1:8)
Method: (§1) In a further study, antimicrobial activities of MEM and ML302F alone and in combination were assessed in-vitro against 31 VIM-producing clinical isolates.

P. aeruginosa 47 = experiment: as above; assay type: cell-based; details: Pseudomonas aeruginosa; P. aeruginosa 47 (VIM-2); MEM alone or with ML302F (1:8)
Method: as §1

P. aeruginosa 11 (13) = experiment: as above; assay type: cell-based; details: Pseudomonas aeruginosa; P. aeruginosa 11 (13) (VIM-2); MEM alone or with ML302F (1:8)
Method: as §1

P. aeruginosa 6 (14) = experiment: as above; assay type: cell-based; details: Pseudomonas aeruginosa
Method: as §1

P. aeruginosa 30 = experiment: as above; assay type: cell-based; details: Pseudomonas aeruginosa; P. aeruginosa 30 (VIM-2); MEM alone or with ML302F (1:8)
Method: as §1

P. aeruginosa GR62 = experiment: as above; assay type: cell-based; details: Pseudomonas aeruginosa; P. aeruginosa GR62 (VIM-2); MEM alone or with ML302F (1:8)
Method: as §1

P. aeruginosa 3 (13) = experiment: as above; assay type: cell-based; details: Pseudomonas aeruginosa; P. aeruginosa 3 (13) (VIM-2); MEM alone or with ML302F (1:8)
Method: as §1

K. oxytoca 95 = experiment: MIC of MEM with and without ML302F (1:8), VIM-4 producer; assay type: cell-based; details: Klebsiella oxytoca; K. oxytoca 95 (VIM-4); MEM alone or with ML302F (1:8)
Method: as §1

E. coli 98 = experiment: as above; assay type: cell-based; details: Escherichia coli; E. coli 98 (VIM-4); MEM alone or with ML302F (1:8)
Method: as §1

K. pneumoniae 196 = experiment: as above; assay type: cell-based; details: Klebsiella pneumoniae; K. pneumoniae 196 (VIM-4); MEM alone or with ML302F (1:8)
Method: as §1

K. pneumoniae 101 = experiment: as above; assay type: cell-based; details: Klebsiella pneumoniae; K. pneumoniae 101 (VIM-4); MEM alone or with ML302F (1:8)
Method: as §1

K. pneumoniae 120 = experiment: as above; assay type: cell-based; details: Klebsiella pneumoniae; K. pneumoniae 120 (VIM-4); MEM alone or with ML302F (1:8)
Method: as §1

E. cloacae 102 = experiment: as above; assay type: cell-based; details: Enterobacter cloacae; E. cloacae 102 (VIM-4); MEM alone or with ML302F (1:8)
Method: as §1

K. pneumoniae 128 = experiment: as above; assay type: cell-based; details: Klebsiella pneumoniae; K. pneumoniae 128 (VIM-4); MEM alone or with ML302F (1:8)
Method: as §1

K. oxytoca 126 = experiment: as above; assay type: cell-based; details: Klebsiella oxytoca; K. oxytoca 126 (VIM-4); MEM alone or with ML302F (1:8)
Method: as §1

K. pneumoniae GR54 = experiment: MIC of MEM with and without ML302F (1:8), VIM-1 producer; assay type: cell-based; details: Klebsiella pneumoniae
Method: as §1

P. stuartii 70 = experiment: as above; assay type: cell-based; details: Providencia stuartii; P. stuartii 70 (VIM-1); MEM alone or with ML302F (1:8)
Method: as §1

K. pneumoniae 177 = experiment: as above; assay type: cell-based; details: Klebsiella pneumoniae; K. pneumoniae 177 (VIM-1); MEM alone or with ML302F (1:8)
Method: as §1

P.. stuartii 67 = experiment: as above; assay type: cell-based; details: Providencia stuartii; P. stuartii 67 (VIM-1); MEM alone or with ML302F (1:8)
Method: as §1

P. aeruginosa GR57 [2] = experiment: MEM/ML302F treatment assay in infected G. mellonella larvae; assay type: in vivo; details: PA GR57 infection; 96 hrs; MEM 0.6 mg/kg, ML302F 4.8 mg/kg, alone or combined (1:8)
Method: (§2) The activity of MEM and ML302F alone and in combination were assessed using 16 G. mellonella larva as described by M. Hornsey and D. W. Wareham (Antimicrob. Agents Chemother., 2011, 55(7), 3534-3537). Larvae were inoculated with P. aeruginosa GR57, E. coli EC98 and K. pneumoniae KP120. In combination therapies, a fixed ratio (1:8) of MEM:ML302F containing 0.6 mg/Kg of MEM8 and 4.8 mg/Kg of ML302F was administered in 10 μL injections to infected larvae. PBS injections (10 μL) were used as both controls for no antimicrobial therapy and inoculation injury. Larvae were scored for survival over 96 hrs and kill curves analysed by the log-rank test for trend. Relative risk (RR) of survival between the different treatment arms was calculated using Fisher's exact test with, two-tailed P-values of <0.05 considered statistically significant.

E. coli EC98 = experiment: as above; assay type: in vivo; details: EC 98 infection; 96 hrs; MEM 0.6 mg/kg, ML302F 4.8 mg/kg, alone or combined (1:8)
Method: as §2

K. pneumoniae KP120 = experiment: as above; assay type: in vivo; details: KP 120 infection; 96 hrs; MEM 0.6 mg/kg, ML302F 4.8 mg/kg, alone or combined (1:8)
Method: as §2

In the case of CN1CCN(NC(=O)CN2C(=O)C(=Cc3c(Cl)ccc(Cl)c3Cl)SC2=S)CC1 (mixture of isomers) [ML302, N-(4-Methylpiperazin-1-yl)-2-(4-oxo-2-thioxo-5-(2,3,6-trichlorobenzylidene)thiazolidin-3-yl)acetamide], the IC50 (VIM-2) is listed as 0.548 µM.
For C[C@@H](O)[C@H]1C(=O)N2C(C(=O)O)=C(S[C@@H]3CN[C@H](C(=O)N(C)C)C3)[C@H](C)[C@H]12 [Meropenem, meropenem], the MIC (P. aeruginosa GR57 [1]) was 32 µg/mL, the MIC (P. aeruginosa 47) was 32 µg/mL and the MIC (P. aeruginosa 11 (13)) was 32 µg/mL. It also gave an MIC (P. aeruginosa 6 (14)) of 128 µg/mL, an MIC (P. aeruginosa 30) of 64 µg/mL and an MIC (P. aeruginosa GR62) of 32 µg/mL. It also gave an MIC (P. aeruginosa 3 (13)) of 64 µg/mL, an MIC (K. oxytoca 95) of 32 µg/mL and an MIC (E. coli 98) of 16 µg/mL. It also gave an MIC (K. pneumoniae 196) of 16 µg/mL, an MIC (K. pneumoniae 101) of 32 µg/mL and an MIC (K. pneumoniae 120) of 16 µg/mL. The MIC (E. cloacae 102) was 32 µg/mL, the MIC (K. pneumoniae 128) was 4 µg/mL and the MIC (K. oxytoca 126) was 32 µg/mL. It also gave an MIC (K. pneumoniae GR54) of 128 µg/mL, an MIC (P. stuartii 70) of 8 µg/mL and an MIC (K. pneumoniae 177) of 1 µg/mL. For the same molecule, the MIC (P.. stuartii 67) was 8 µg/mL, the “% survival of infected larvae” value (P. aeruginosa GR57 [2]) was 23% and the “% survival of infected larvae” value (E. coli EC98) was 44%. For the same molecule, the “% survival of infected larvae” value (K. pneumoniae KP120) was 69%.
